One may read the IC50 as the midpoint of a concentration-inhibition curve.

Assay [1] in a line: Antiproliferative activity against human BGC823 cells assessed as cell-growth inhibition after 48 hrs by MTT assay. Format: functional, cell-based. The note with it: BGC-823, 48 h. For orientation: Formazan colour is commonly taken as a measure of viable cells.
Assay [2] relates to LoVo. The assay can be described thus: Antiproliferative activity against human LoVo cells assessed as cell-growth inhibition after 48 hrs by MTT assay. The format is functional, cell-based.
For assay [3], the system named is HeLa. Put plainly: Antiproliferative activity against human HeLa cells assessed as cell-growth inhibition after 48 hrs by MTT assay. The format is functional, cell-based.
A short description of assay [4]: Antiproliferative activity against human U87 cells assessed as cell-growth inhibition after 48 hrs by MTT assay. The format is functional, cell-based, U-87MG ATCC. The note with it: U-87 MG.
Assay [5] has as its system MCF7. Put plainly: Antiproliferative activity against human MCF7 cells assessed as cell-growth inhibition after 48 hrs by MTT assay. The format is functional, cell-based. Conditions: MCF7, 48 h.
Assay [6] is described as follows: Antiproliferative activity against human HCT116 cells assessed as cell-growth inhibition after 48 hrs by MTT assay. The format is functional, cell-based. The note with it: HCT-116, 48 h.

As for `C=C(CCCC(C)(C)O)[C@H]1CC[C@]2(C)[C@@H]1[C@H](OC(=O)CCl)C[C@@H]1[C@@]3(C)CC[C@H](O)C(C)(C)[C@@H]3CC[C@]12C`, the IC50 in assay [1] was determined as 45.2 µM; in assay [2] it was 23.5 µM; in assay [3], 56.6 µM; in assay [4], 24.6 µM; in assay [5] it was 9.8 µM; in assay [6] it was 22.5 µM.
Regarding `CC(=O)O[C@H]1CC[C@]2(C)[C@H]3C[C@@H](O)[C@@H]4[C@@H]([C@](C)(O)CCCC(C)(C)O)CC[C@@]4(C)[C@]3(C)CC[C@H]2C1(C)C`, the IC50 in assay [1] was 34.6 µM; in assay [2], 44.9 µM; in assay [3] it was 30.2 µM; in assay [4], 32.6 µM; in assay [5] it was 19.5 µM; in assay [6] it was 20.5 µM.
Consider `CC(=O)O[C@@H]1C[C@@H]2[C@@]3(C)CC[C@H](O)C(C)(C)[C@@H]3CC[C@@]2(C)[C@]2(C)CC[C@H]([C@](C)(O)CCCC(C)(C)O)[C@@H]12`, for which the IC50 in assay [1] came to 28.7 µM; in assay [2] it was 36.7 µM; in assay [3], 39.9 µM; in assay [4], 34.4 µM; in assay [5], 15.6 µM; in assay [6] it was 18.9 µM.
As for `CC(C)(O)CCC[C@@](C)(O)[C@H]1CC[C@]2(C)[C@@H]1[C@H](O)C[C@@H]1[C@@]3(C)CC[C@H](O)C(C)(C)[C@@H]3CC[C@]12C`, the IC50 was 44.2 µM in assay [1]; 46.7 µM in assay [2]; 48.6 µM in assay [3]; 27.5 µM in assay [4]; 49.6 µM in assay [5]; 33.3 µM in assay [6].
For the compound `O=c1[nH]cc(F)c(=O)[nH]1` [FLUOROURACIL], the IC50 amounted to 35.6 µM in assay [1]; 12.7 µM in assay [2]; 18.1 µM in assay [3]; 38.2 µM in assay [4]; 36.2 µM in assay [6].
Regarding `CC(C)(O)CCC[C@@](C)(O)[C@H]1CC[C@]2(C)[C@@H]1[C@H](OC(=O)CCl)C[C@@H]1[C@@]3(C)CC[C@H](OC(=O)CCl)C(C)(C)[C@@H]3CC[C@]12C`, the IC50 in assay [1] was 61.8 µM; in assay [2], 41 µM; in assay [3], 68.9 µM; in assay [4] it was 88.1 µM; in assay [5] it was 38.1 µM; in assay [6], 45.6 µM.
In the case of `C/C(=C/CCC(C)(C)O)[C@H]1CC[C@]2(C)[C@@H]1[C@H](OC(=O)CCl)C[C@@H]1[C@@]3(C)CC[C@H](O)C(C)(C)[C@@H]3CC[C@]12C`, the IC50 in assay [1] came to 42.3 µM; in assay [2] it was 31 µM; in assay [3] it was 44.4 µM; in assay [4], 34.6 µM; in assay [5] it was 37.8 µM; in assay [6], 8.6 µM.
In the case of `CC(C)(CCC[C@@](C)(O)[C@H]1CC[C@]2(C)[C@@H]1[C@H](O)C[C@@H]1[C@@]3(C)CC[C@H](OC(=O)CCl)C(C)(C)[C@@H]3CC[C@]12C)OC(=O)CCl`, the IC50 is 6.9 µM in assay [1]; 58.1 µM in assay [2]; 27.1 µM in assay [3]; 40.1 µM in assay [4]; 3.7 µM in assay [5]; 38.2 µM in assay [6].
In the case of `C=C(CCCC(C)(C)O)[C@H]1CC[C@]2(C)[C@@H]1[C@H](O)C[C@@H]1[C@@]3(C)CC[C@H](OC(=O)CCl)C(C)(C)[C@@H]3CC[C@]12C`, the IC50 in assay [1] was determined as 44.4 µM; in assay [2] it was 19.1 µM; in assay [3], 60.9 µM; in assay [4], 14.1 µM; in assay [5], 18.9 µM; in assay [6], 12.1 µM.
As for `C=C(CCCC(C)(C)OC(=O)CCl)[C@H]1CC[C@]2(C)[C@@H]1[C@H](O)C[C@@H]1[C@@]3(C)CC[C@H](O)C(C)(C)[C@@H]3CC[C@]12C`, the IC50 was determined as 27.1 µM in assay [1]; 40 µM in assay [2]; 39.7 µM in assay [3]; 10.1 µM in assay [4]; 10.8 µM in assay [5]; 42.8 µM in assay [6].
For the compound `CC(C)(CCC[C@@](C)(OC(=O)CCl)[C@H]1CC[C@]2(C)[C@@H]1[C@H](O)C[C@@H]1[C@@]3(C)CC[C@H](O)C(C)(C)[C@@H]3CC[C@]12C)OC(=O)CCl`, the IC50 came out at 32.4 µM in assay [1]; 61.2 µM in assay [2]; 52.6 µM in assay [3]; 19.2 µM in assay [4]; 12.1 µM in assay [5]; 56.1 µM in assay [6].
For the compound `CC(C)(O)CCC[C@@](C)(O)[C@H]1CC[C@]2(C)[C@@H]1[C@H](OC(=O)CCl)C[C@@H]1[C@@]3(C)CC[C@H](O)C(C)(C)[C@@H]3CC[C@]12C`, the IC50 in assay [1] was 30.9 µM; in assay [2] it was 31.1 µM; in assay [3], 37.2 µM; in assay [4], 7.3 µM; in assay [5] it was 26.2 µM; in assay [6], 32.1 µM.
Regarding `C/C(=C/CCC(C)(C)O)[C@H]1CC[C@]2(C)[C@@H]1[C@H](OC(=O)CCl)C[C@@H]1[C@@]3(C)CC[C@H](OC(=O)CCl)C(C)(C)[C@@H]3CC[C@]12C`, the IC50 amounted to 7.1 µM in assay [1]; 1.7 µM in assay [2]; 37.6 µM in assay [3]; 16.6 µM in assay [4]; 1.6 µM in assay [5]; 2.6 µM in assay [6].
Take `C=C(CCCC(C)(C)O)[C@H]1CC[C@]2(C)[C@@H]1[C@H](OC(=O)CCl)C[C@@H]1[C@@]3(C)CC[C@H](OC(=O)CCl)C(C)(C)[C@@H]3CC[C@]12C`: the IC50 in assay [1] was found to be 8.3 µM; in assay [2], 2.1 µM; in assay [3] it was 21.7 µM; in assay [4], 22.8 µM; in assay [5], 1.7 µM; in assay [6], 1.6 µM.
Turning to `CC(=O)O[C@H]1CC[C@]2(C)[C@H]3C[C@@H](OC(C)=O)[C@@H]4[C@@H]([C@](C)(O)CCCC(C)(C)O)CC[C@@]4(C)[C@]3(C)CC[C@H]2C1(C)C`, the IC50 in assay [1] was 42.3 µM; in assay [2] it was 35.6 µM; in assay [3], 28.9 µM; in assay [4], 41.2 µM; in assay [5] it was 23.5 µM; in assay [6], 17.1 µM.
Consider `C/C(=C/CCC(C)(C)OC(=O)CCl)[C@H]1CC[C@]2(C)[C@@H]1[C@H](O)C[C@@H]1[C@@]3(C)CC[C@H](OC(=O)CCl)C(C)(C)[C@@H]3CC[C@]12C`, for which the half-maximal inhibitory concentration (IC50) is 24.2 µM in assay [1]; 1.3 µM in assay [2]; 23.4 µM in assay [3]; 21.3 µM in assay [4]; 7.9 µM in assay [5]; 1.2 µM in assay [6].
Take `CC(C)(O)CCC[C@@](C)(O)[C@H]1CC[C@]2(C)[C@@H]1[C@H](O)C[C@@H]1[C@@]3(C)CC[C@H](OC(=O)CCl)C(C)(C)[C@@H]3CC[C@]12C`: the 50% inhibitory concentration (IC50) in assay [1] was 63.6 µM; in assay [2], 45.8 µM; in assay [3], 68.1 µM; in assay [4] it was 31.9 µM; in assay [5], 84.3 µM; in assay [6] it was 20.4 µM.

For the origin of these results see ChEMBL document CHEMBL3351936, “Novel 25-hydroxyprotopanaxadiol derivatives incorporating chloroacetyl chloride and their anti-tumor evaluation” (Bioorg Med Chem Lett, 2014).
